Assay results as given in patent US20130030055A1, “COMPOSITIONS AND METHODS FOR TREATING HAIR LOSS, HAIR THINNING, AND HAIR COLOR LOSS” (priority 2010, published 2013).

Tests used:
Type in all cases: in vivo, human
eyelashes [1] = experiment: Open-label study: health outcomes questionnaires and verbal responses
From the text: Subjects were instructed to apply bimatoprost 0.03% to the eyelid lash line once daily for 12 weeks using an applicator (Studio Basics Professional Tools Eye Applicators, Paris Presents Incorporated, Gumee, Ill.) for each upper eyelid each evening and, if necessary, to wipe the areas immediately around the eyelid afterward to remove excess medication. Periodic use of artificial tears was allowed, but only prior to administration of bimatoprost 0.03%. Health Outcomes Questionnaires. A questionnaire was used to track adverse events and to assess the subjects' satisfaction with treatment and their subjective evaluation of their eyelashes' appearance. Subjects were asked to answer all questions and return the questionnaire at weeks 4, 8, and 12. Subjects were also asked to respond verbally to 2 additional questions and their responses were recorded by site staff (FIGS. 1-4).

eyebrows = experiment: Eyebrow growth after chemotherapy-induced eyebrow loss (Example 3); settings: person, eyebrows lost after chemotherapy
From the text: A person participates in a clinical study for eyebrow growth. The patient has lost both their eyebrows as a result of recent treatments of chemotherapy. Bimatoprost 0.03% is applied along the eyebrow line of both eyes. After approximately 4 weeks, the person begins to experience eyebrow growth. […] The person is extremely satisfied with the results and no longer needs to apply make-up in place of real eyebrows.

eyelashes [2] = experiment: Open-label study of bimatoprost 0.03% on eyelid lash line: photographic Global Eyelash Assessment (GEA)
Experimental: To assess the safety, efficacy, and subjective experience of using dermal application of bimatoprost 0.03% for the growth of natural eyelashes and as described herein hair in at least one eyebrow region, a prospective, open-label study of subjects who desired longer, thicker (fuller), and darker natural eyelashes was conducted.
This was a prospective, open-label study of subjects who wanted to grow more prominent eyelashes. […] The protocol was in compliance with the Declaration of Helsinki and in accordance with applicable Institutional Review Board regulations approved Aug. 28, 2005. Study subjects gave informed consent prior to initiation of any study-related procedures.
(§1) Subjects were instructed to apply bimatoprost 0.03% to the eyelid lash line once daily for 12 weeks using an applicator (Studio Basics Professional Tools Eye Applicators, Paris Presents Incorporated, Gumee, Ill.) for each upper eyelid each evening and, if necessary, to wipe the areas immediately around the eyelid afterward to remove excess medication. Periodic use of artificial tears was allowed, but only prior to administration of bimatoprost 0.03%.
Photographic Documentation and Analysis. Frontal-(with eyes open) and side-view photographs were taken of the subjects' eyes at each visit; frontal-view images with eyes closed were taken starting at week 1. The photographic assessment planned as a primary a priori endpoint was a dynamic measure assessing change at each visit from baseline photos. The dynamic scale of global change in increased length, thickness, pigmentation, and number of lashes was +0=no change, +½=little change, +1=mild noticeable change, +2=moderate notable change, and +3=major very notable change. A static photographic assessment was calculated. Photographs from subjects who had frontal eyes-closed images available from weeks 1 and 12 were evaluated in a post hoc analysis and scored independently by 2 raters using a validated Global Eyelash Assessment (GEA) scale, designed to objectively evaluate the quality of a subject's eyelashes. One evaluator was a physician and the other was a health outcomes researcher employed by the study sponsor. In this clinician-graded assessment, overall eyelash prominence was rated on a scale from 1 (minimal) to 4 (very marked). The two independently assessed scores for each photograph (1 from each evaluator) were averaged and the change from week 1 was calculated for each patient.
(§2) Statistical Analyses. A 2-sided paired t-test was used to evaluate the intraocular pressure change from baseline, and the GEA change from week 1 to week 12 was compared using a Wilcoxon signed-rank test. Analysis of intraocular pressure was performed on a per-eye and per-subject basis. A significance level of 0.05 was used for all statistical tests. Categorical variables were summarized with frequency, count, and percentages.

[3] = Open-label study: adverse events, periorbital darkening, biomicroscopy
From the text: as §1
(§3) Clinical Examinations. Assessments were conducted at baseline and at weekly study visits at weeks 1, 4, 8, 12 (end of treatment period), and 16 (post-treatment follow-up period). At each visit, subjects underwent a complete eye examination by an ophthalmologist that included intraocular pressure measurements, visual acuity, and biomicroscopy. Subjects were queried at each visit for adverse events and these were recorded by the investigator. The presence of periorbital darkening was noted and graded on a scale of 0 to 4, and adverse event data were collected at each visit during the treatment period.
Health Outcomes Questionnaires. A questionnaire was used to track adverse events and to assess the subjects' satisfaction with treatment and their subjective evaluation of their eyelashes' appearance. Subjects were asked to answer all questions and return the questionnaire at weeks 4, 8, and 12. Subjects were also asked to respond verbally to 2 additional questions and their responses were recorded by site staff (FIGS. 1-4).

[4] = Open-label study: intraocular pressure measurements
From the text: as §1, §3, §2

Compound: CCNC(=O)CCC/C=C\C[C@@H]1[C@@H](/C=C/[C@@H](O)CCc2ccccc2)[C@H](O)C[C@@H]1O [bimatoprost]
- Subjects who noticed changes in eyelashes by week 12 (eyelashes [1]; 16 respondents at week 12): 3 subjects
- Subjects who noticed changes in eyelashes within the first month (eyelashes [1]; 16 respondents at week 12): 3 subjects
- Subjects who noticed changes in eyelashes within the first week (eyelashes [1]; 16 respondents at week 12): One
- Respondents who had started to notice changes in their eyelashes by week 8 (eyelashes [1]; 16 respondents at week 12 (9/16)): 56.3%
- Respondents indicating eyelashes were "improved" or "much improved" (eyelashes [1]; by week 12, all respondents): 16 respondents
- Respondents answering yes to "Do your eyes sting or burn upon application?" (eyelashes [1]; week 4 (8/19)): 42.2%
- Respondents answering yes to "Do your eyes sting or burn upon application?" (eyelashes [1]; week 8 (6/18)): 33.3%
- Respondents answering yes to "Do your eyes sting or burn upon application?" (eyelashes [1]; week 12 (4/15)): 26.7%
- Respondents agreeing "very much/much" that they had done something positive for their appearance (eyelashes [1]; week 12 (12/16)): 75%
- Respondents agreeing "very much/much" that the treatment was helpful (eyelashes [1]; week 12 (15/16)): 94%
- Subjects indicating both longer and thicker (eyelashes [1]; week 12, 16 respondents): 1 subject
- Subjects reporting all 3 options, longer, thicker, and darker (eyelashes [1]; week 12, 16 respondents): 3 subjects
- Respondents choosing "longer" as the eyelash change they noticed most (eyelashes [1]; week 12, Twelve of the 16 respondents): 81.3%
- Respondents who had noticed growth or darkening of their eyelashes (verbal question) (eyelashes [1]; week 12, all 23 respondents): 100%
- Respondents indicating yes at least once to sting or burn upon application (eyelashes [1]; weeks 4, 8, 12): 10 respondents
- Eyebrow outcome following the study (eyebrows): full, long eyebrows
- Time until eyebrow growth begins (eyebrows; applied along eyebrow line of both eyes): approximately 4 weeks
- Mean GEA score at week 1 (eyelashes [2]; 17 subjects with week-1 GEA scores of 1 or 2): 1.88±0.33
- Mean increase in GEA score at week 12 (eyelashes [2]; 17 subjects with week-1 GEA scores of 1 or 2, P<0.0001): 1.41±0.44
- Mean change in GEA score from week 1 to week 12 (eyelashes [2]; all 19 subjects, P<0.0001): 1.37±0.44
- Mean week-1 GEA score (eyelashes [2]; all 19 subjects, scale 1 to 4): 2.0±0.47
- Subjects rated GEA 2 (moderate) (eyelashes [2]; week 1 (15/19)): 79.0%
- Subjects rated GEA 3 (marked) or higher (eyelashes [2]; week 12 (18/19)): 94.7%
- Subjects Reported (n): Eye redness ([3]; Week 1 (n = 24)): 2
- Subjects Reported (n): Periorbital pigmentation changes ([3]; Week 1 (n = 24)): 0
- Subjects Reported (n): Possible brown eye shadow effect ([3]; Week 1 (n = 24)): 1
- Subjects Reported (n): Burning ([3]; Week 4 (n = 27)): 1
- Subjects Reported (n): Dryness and tightness ([3]; Week 4 (n = 27)): 1
- Subjects Reported (n): Eye redness ([3]; Week 4 (n = 27)): 4
- Subjects Reported (n): Mild itchiness ([3]; Week 4 (n = 27)): 3
- Subjects Reported (n): Periorbital pigmentation changes ([3]; Week 4 (n = 27)): 3
- Subjects Reported (n): Periorbital redness ([3]; Week 4 (n = 27)): 1
- Subjects Reported (n): Burning ([3]; Week 8 (n = 20)): 2
- Subjects Reported (n): Mild itchiness ([3]; Week 8 (n = 20)): 2
- Subjects Reported (n): Periorbital pigmentation changes ([3]; Week 8 (n = 20)): 1
- Subjects Reported (n): Redness and dryness ([3]; Week 8 (n = 20)): 1
- Subjects Reported (n): Dryness and darkening ([3]; Week 12 (n = 23)): 1
- Subjects Reported (n): Eye redness ([3]; Week 12 (n = 23)): 1
- Subjects Reported (n): Eyelid redness ([3]; Week 12 (n = 23)): 1
- Subjects Reported (n): Itching ([3]; Week 12 (n = 23)): 1
- Subjects Reported (n): Periorbital pigmentation changes ([3]; Week 12 (n = 23)): 3
- Subjects Reported (n): Red and sore ([3]; Week 12 (n = 23)): 1
- Hyperemia on biomicroscopy examination ([3]; any subject at any visit): not observed
- Subjects with periorbital darkening ([3]; during the course of the study, 28 subjects): 18%
- Subjects whose pigmentation changes were noted as possible, slight or a little ([3]; of 28 subjects): 11%
- Serious or unexpected adverse events ([3]; whole study): no serious or unexpected adverse events
- Mean change from baseline in intraocular pressure across all weeks (per eye) ([4]; bimatoprost 0.03% once daily to eyelid lash line for 12 weeks, per eye): +0.98 to −0.81 mm Hg
- Mean change from baseline in intraocular pressure across all weeks (per subject) ([4]; bimatoprost 0.03% once daily to eyelid lash line for 12 weeks, per subject): +0.98 to −0.79 mm Hg
- Mean change from baseline intraocular pressure at each time point ([4]; each time point): less than 1 mm Hg
- Per-eye intraocular pressure change from baseline ([4]; week 1, P=0.0470): −0.81±2.72 mm Hg
- Per-eye intraocular pressure change from baseline ([4]; week 4, P=0.0412): 0.98±3.23
- Clinical significance of changes in intraocular pressure ([4]; within accepted variability of the test): not clinically significant
